From patent publication US20150040894A1 (VIRGINIA COMMONWEALTH UNIVERSITY, priority 2010, published 2015)

Columns and labels:
[1] = tested on: ERK1/2 phosphorylation in NHBE cells; assay: LPS-induced phosphorylation of MAPKs (Western blotting); type: cell-based, human
Protocol: Membranes were stripped with a stripping buffer (100 mM 2-mercaptoethanol, 2% SDS, and 62.5 mM Tris/HCl pH 6.7) for 30 min at 30° C. The blots were reprobed with anti-p44/42 MAPK, anti-p38 MAPK, or anti-SAPK/JNK antibody (diluted 1:1000 for each), followed by anti-rabbit-IgG HRP secondary antibody (diluted 1:2000). To correct small differences in loading for NF-κB p65, blots were stripped, and reprobed with anti-human β-actin antibody (diluted 1:5000), followed by anti-mouse IgG HRP secondary antibody (diluted 1:5000). Western blot images were scanned and analyzed on NIH Image J software (18).

[2] = in vivo; cited from earlier work
[3] = tested on: IL-8 secretion from NHBE cells; assay: LPS-induced IL-8 secretion from NHBE cells in culture (ELISA); type: cell-based, human
Protocol: NHBE cells (Lonza Walkersville, Walkersville, Md.) were plated at 3,500 cells/cm^2 in culture dishes in bronchial epithelial cell growth medium (BEGM) supplemented with the SingleQuot® kit (Lonza) without antibiotics and cultured at 37° C. in a 5% CO2 incubator. We used endotoxin-free media (<0.005 endotoxin units/ml) and second-passage cells for all experiments. Cells were grown to confluence for 6 days. Cultures without antibiotics were then transferred to 6-well or 35 mm dishes coated with type 1 rat-tail collagen and seeded at 3,500 cells/cm^2. The medium was changed every 24 h. To avoid influence of growth factors on cell signaling and IL-8 secretion, cells were cultured in supplement-free bronchial epithelial cell basal medium (BEBM) for 24 h before stimulation. We evaluated cell response at the time of cell confluence rather than normalize to the relative number of cells because cell maturation could affect cell signaling and cytokine secretion, and at confluence, all cells are at similar growth stages. Culture supernatants were collected and centrifuged for 5 min at 200×g and stored at −20° C. until assayed. IL-8 was measured by ELISA (Beckman Coulter, Inc., Brea, Calif.) according to the manufacturer's instructions. Concentrations in each sample were obtained by interpolation from standard curves, and calculated as the mean of the results at the sample dilution. […] We chose to assess cell response at the time of cell confluence rather than normalize to the relative number of cells, because cell maturation could potentially affect cell signaling and cytokine secretion, and at confluence, all cells are at similar growth stages.

[4] = tested on: NF-κB p65 phosphorylation in NHBE cells; assay: LPS-induced phosphorylation of NF-κB p65 (Western blotting); type: cell-based, human
Protocol: After stimulation, the plated cells were washed with cold PBS, and then lysed on ice in a modified radio immunoprecipitation buffer (1% Nonidet P-40, 1% sodium deoxycholate, 150 mM NaCl, 10 mM Tris pH 7.5, 5 mM sodium pyrophosphate, 1 mM NaVO4, 5 mM NaF, 1 μg/ml aprotinin, 1 μg/ml leupeptin, and 0.1 mM PMSF) for 15 min and then scraped from the dishes. DNA was sheared by passing the lysate though a 27-gauge needle, and insoluble material was removed by centrifugation at 20,000 g for 15 min at 4° C. The protein concentration of the resulting supernatant was quantified by the DC protein assay (Bio-Rad, Hercules, Calif.). Equal amounts of protein extracts were loaded on a 12% SDS-PAGE mini gel and transferred to a nitrocellulose membrane (Bio-Rad). Membranes were blocked with blocking buffer (150 mM NaCl, 20 mM Tris, and 0.1% Tween 20, pH 7.6) containing 5% nonfat dry milk at 4° C. overnight. Subsequently, membranes were rinsed and incubated with the primary antibody: phospho (p)-p44/42 MAPK (Thr202/Tyr204) (diluted 1:2000), p-p38 MAPK (Thr180/Tyr182) (diluted 1:1000), p-SAPK/JNK (Thr183/Tyr185) (diluted 1:1000), or p-NF-κB p65 rabbit polyclonal IgG (diluted 1:1000) (Cell Signaling Technology), for 2 h at room temperature. The membranes were then incubated at room temperature for 1 h with the anti-rabbit IgG HRP secondary antibody (diluted 1:2000). Subsequently, the blots membranes were developed with LumiGLO chemiluminescent substrate peroxide (Cell Signaling Technology).
Membranes were stripped with a stripping buffer (100 mM 2-mercaptoethanol, 2% SDS, and 62.5 mM Tris/HCl pH 6.7) for 30 min at 30° C. The blots were reprobed with anti-p44/42 MAPK, anti-p38 MAPK, or anti-SAPK/JNK antibody (diluted 1:1000 for each), followed by anti-rabbit-IgG HRP secondary antibody (diluted 1:2000). […] Western blot images were scanned and analyzed on NIH Image J software (18).
The […] phosphorylation of NF-κB p65 was measured by Western blotting. The band intensity was calculated with NIH Image J software.

[5] = Ferret activity, appetite and weight after tracheal LPS with and without dapsone; type: in vivo; conditions: LPS 5 days, 5-day dapsone treatment (oral or nebulized) vs vehicle
Protocol: (§1) Twenty adult male ferrets (weight, 1.3 to 2.0 kg) were obtained from Marshall Farms (Rose, N.Y.). Ferrets were anesthetized with 40 mg/kg ketamine and 5 mg/kg xylazine, and exposed to endotoxin for 30 min once daily for 5 days by incubating with a 3.0 uncuffed endotracheal tube (ETT) coated with 10 mg of LPS mixed in 300 μl water soluble K-Y jelly (Johnson & Johnson, New Brunswick, N.J.) (Abanses et al., 2009). As controls, K-Y jelly without LPS was used in two ferrets.
(§2) This is equivalent to the oral dose used to treat persons with skin disease. For aerosol inhalation, ferrets were shallowly intubated with ETT, which was placed 1 cm below the larynx. […] Ferrets (body weight 1.5 kg) have 0.3-0.4 ml total lung lining fluid volume. Therefore, the dose delivered to the lung, is estimated to be 0.1 to 1.0 μg in this system given reported nebulization efficiency.

[6] = tested on: LPS-inflamed ferret trachea; assay: Intraepithelial neutrophil accumulation in LPS-inflamed ferret trachea; type: in vivo; conditions: 5 days
[7] = tested on: IL-8 release from NHEK; conditions: cited from earlier work
[8] = tested on: steroid-dependent asthma patients; conditions: orally administered dapsone; cited from earlier work
[9] = tested on: IL-8 mRNA expression in NHBE cells; assay: IL-8 mRNA expression by real-time quantitative PCR; type: cell-based, human; conditions: 4 h
Protocol: For the relative quantification of IL-8 mRNA expression, the expression of glyceraldehyde-3-phosphate dehydrogenase (GAPDH) was served as an internal control. EvaGreen was used as a DNA intercalator dye to monitor amplified DNA quantification, and real-time quantitative PCR curves were analyzed by the CFX Manager™ software (Bio-Rad) in order to obtain threshold cycle (Ct) values for each sample. Quantification was based on a standard curve. Appropriate IL-8 and GADPH forward and reverse primers were used.

[10] = tested on: apical and basolateral IL-8 secretion from ALI-conditioned NHBE cells; assay: IL-8 secretion from NHBE cells cultured under air-liquid interface (ALI) condition; type: cell-based, human; conditions: dapsone 1 μg/ml in basolateral medium, LPS 10 μg/ml 24 h
Protocol: For NHBE cell differentiation, cells were plated at 2.0×10^5 cells/cm^2 onto polycarbonate inserts of 6.5-mm diameter, 0.4-μm pore size and 10-μm thickness (Costar Transwell Clear, Cambridge, Mass., USA) coated with type 1 rat-tail collagen, and cultured with serum-free DMEM/F12 medium containing ITS-A (1.0%; Invitrogen Co., Carlsbad, Calif.), epidermal growth factor (EGF) (recombinant human EGF, 0.5 ng/ml; Invitrogen Co.), triiodothyronine (10 ng/ml; […] Sigma-Aldrich), bovine serum albumin (2.0 μg/ml; Sigma-Aldrich) and bovine pituitary extract (30 μg/ml; Invitrogen Co.). After achieving confluence, the apical medium was removed, and cells were cultured with an air-liquid-interface (ALI) method. The culture medium was changed every 48 h, and cells were maintained at 37° C. in a 5% CO2, for 10-14 days. Culture supernatants were collected and centrifuged for 5 min at 200×g and stored at −20° C. until assayed. IL-8 was measured by ELISA (Beckman Coulter, Inc., Brea, Calif.) according to the manufacturer's instructions. Concentrations in each sample were obtained by interpolation from standard curves, and calculated as the mean of the results at the sample dilution. […] NHBE cells were stimulated with LPS from the apical (AP-LPS) or basolateral side (BL-LPS) for 24 h, and IL-8 secretion levels in both chambers were measured. […]

[11] = tested on: LPS-inflamed ferret trachea; assay: Mucociliary transport (MCT) on excised tracheal segments; type: in vivo; conditions: 5 days
Protocol: as §1
as §2, with “efficiency. […]” for “efficiency.”
A tracheal segment was placed on a piece of gauze saturated with Ringer's solution in a chamber in which the relative humidity was maintained at 95 to 100% and the temperature was maintained at 22° C. to 24° C. MCT was measured by focusing a tracheal segment under a microscope with gradicule (grid line) eyepiece and recording the transport time of the leading edge of very fine shavings of plastic that were placed on the tracheal epithelium. […]

[12] = tested on: IL-13 induced goblet cell hyperplasia in NHBE cells; assay: In vitro model of IL-13 induced goblet cell hyperplasia, ALI-conditioned NHBE cells; type: cell-based, human
Source text: Globlet cells are columnar epithelial cells whose sole function is to secrete mucin, which dissolves in water to form mucus. […] An in vitro model of goblet cell hyperplasia was developed using normal human bronchial epithelial (NHBE) cells cultured under air-liquid interface (ALI) conditions.

**Q.** Which “LPS-induced ERK1/2 phosphorylation at 1 h” value ([1]; dapsone 1 μg/ml, LPS 10 μg/ml, 1 h, P<0.05) does the source give for `Nc1ccc(S(=O)(=O)c2ccc(N)cc2)cc1` [dapsone, 4,4′-diaminodiphenyl sulfone] here?
**A.** Its value is “inhibited”.

**Q.** And the “LPS-induced ERK1/2 phosphorylation after 4 h” value ([1]; dapsone 1 μg/ml, LPS 10 μg/ml, after 4 h)?
**A.** Its value is “this effect disappeared”.

**Q.** And the therapeutic serum levels [2]?
**A.** The therapeutic serum levels was 0.5 to 5 µg/mL.

**Q.** What about the “basal IL-8 secretion” value ([3]; dapsone 1 μg/ml, 48 and 72 h, no LPS) of the same molecule?
**A.** Its value is “did not affect”.

**Q.** And the “LPS-induced IL-8 secretion over time” value ([3]; dapsone 1 μg/ml, LPS 10 μg/ml, up to 72 h)?
**A.** Its value is “significantly and persistently decreased”.

**Q.** And the “LPS-induced IL-8 secretion” value ([3]; dapsone 0.3, 1 or 10 μg/ml, LPS 10 μg/ml, 24 h, P<0.01 for each)?
**A.** The value was “suppressed”.

**Q.** And the “NF-κB p65 activation” value ([4]; dapsone 0.3 μg/mL)?
**A.** Its value is “did not significantly inhibit”.

**Q.** What about the “LPS-induced NF-κB p65 phosphorylation” value ([4]; dapsone 1 μg/ml, LPS 10 μg/ml, 15 min to 2 h, to the control level) of the same molecule?
**A.** The value was “significantly inhibited”.

**Q.** What about the “dose dependence of inhibition of NF-κB p65 phosphorylation” value ([4]; dapsone 0.3, 1 and 10 μg/ml (P=0.16 for 0.3; P<0.01 for 1 and 10 μg/ml)) of the same molecule?
**A.** The value was “dose-dependent”.

**Q.** What about the “ferret activity or appetite” value [5] of the same molecule?
**A.** Its value is “no measurable effect”.

**Q.** What about the “ferret weight over 9 days” value [5] of the same molecule?
**A.** Its value is “no difference”.

**Q.** And the “neutrophil accumulation in tracheal epithelium” value ([6]; nebulized dapsone 0.5 mg/ml, 15 min once daily, P<0.05)?
**A.** The value was “significantly inhibited”.

**Q.** What about the “neutrophil recruitment in tracheal epithelium” value ([6]; oral dapsone 2 mg/kg daily, P=0.3) of the same molecule?
**A.** Its value is “tended to inhibit”.

**Q.** What about the “basal IL-8 level” value ([7]; NHEK) of the same molecule?
**A.** The value was “did not depress”.

**Q.** And the “bullous pemphigoid IgG-mediated IL-8 release” value ([7]; dapsone in a therapeutic concentration)?
**A.** Its value is “inhibited”.

**Q.** And the “patients able to substantially reduce or stop taking steroids” value [8]?
**A.** The value was 9 out of 10.

**Q.** What about the “basal IL-8 mRNA level” value ([9]; dapsone 1 μg/ml) of the same molecule?
**A.** Its value is “did not influence”.

**Q.** And the “LPS-induced IL-8 mRNA over expression” value ([9]; dapsone 1 and 10 μg/ml, LPS 10 μg/ml, P<0.05 for each)?
**A.** Its value is “significantly inhibited”.

**Q.** And the “basolateral IL-8 increased by AP- or BL-LPS” value ([10]; P<0.001 AP-LPS, P<0.01 BL-LPS)?
**A.** The value was “inhibited”.

**Q.** And the “apical IL-8 level increased by AP-LPS” value ([10]; P<0.05)?
**A.** The value was “inhibited”.

**Q.** And the MCT velocity ([11]; aerosol dapsone 0.5 mg/ml, 15 min once daily, P=0.007 vs LPS control, normal approximately 7 mm/min)?
**A.** Its MCT velocity is 6 mm/min.

**Q.** What about the MCT ([11]; oral dapsone 2 mg/kg daily, P=0.09, LPS alone 1-3 mm/minute) of the same molecule?
**A.** The MCT was “the increase was not significant”.

**Q.** What about the “growth of ALI-conditioned NHBE cells” value ([12]; dapsone 3 μg/ml, no IL-13) of the same molecule?
**A.** The value was “no measurable effect”.

**Q.** What about the “amount and extent of IL-13 induced goblet cell hyperplasia” value ([12]; dapsone 10 μg/ml, vs control cell cultures) of the same molecule?
**A.** Its value is “decreased”.

**Q.** Which “LPS-induced ERK1/2 phosphorylation” value ([1]; PD98059 20 μM added 1 h before LPS 10 μg/ml, 4 h) does the source give for `COc1cccc(-c2cc(=O)c3ccccc3o2)c1N` [PD98059, 2′-amino-3′-methoxyflavone] here?
**A.** Its value is “abolished”.

**Q.** What about the “LPS-induced IL-8 secretion” value ([3]; PD98059 20 μM added 1 h before LPS) of the same molecule?
**A.** Its value is “did not inhibit”.

**Q.** Which “decrease of basal IL-8 mRNA level” value ([9]; DEX 0.1 μg/ml, P<0.05) does the source give for `C[C@@H]1C[C@H]2[C@@H]3CCC4=CC(=O)C=C[C@]4(C)[C@@]3(F)[C@@H](O)C[C@]2(C)[C@@]1(O)C(=O)CO` [DEX, dexamethasone] here?
**A.** The value was roughly 40%.
